Measured values: publication PMC10816934, “Targeting the Melanocortin 1 Receptor in Melanoma: Biological Activity of α-MSH–Peptide Conjugates” (International Journal of Molecular Sciences, 2024)

Tests used:
[1] = test system: subcutaneous B16 murine melanoma in C57BL/6 male mice; test: In vivo antitumor effect, subcutaneous B16 melanoma allograft; conditions: for Increase of animal bodyweight at the end of the experiment in comparison to the start: conjugates 10 mg Dau content/kg i.p. days 9, 13, 15, 17, free Dau 1 mg/kg days 9, 17; for Tumor growth inhibition based on tumor weight, in comparison to the control group / Animal body weight (Table S1) / Tumor weigh in % (Table S1) / Tumor volume in % (Table S1) / Tumor volume in mm3 (Table S1): conjugates 10 mg Dau content/kg; for Tumor growth inhibition based on tumor weight, in comparison to the control group / Tumor volume in percentage (start set as 100%) increased in comparison to the control group: free Dau 1 mg/kg i.p.; for Animal body weight (Table S1): change at end compared to start; for Animal body weight (Table S1) / Tumor weigh in % (Table S1): minus = decrease; for Tumor weigh in % (Table S1) / Tumor volume in % (Table S1) / Tumor volume in mm3 (Table S1): change compared to control group; for Tumor volume in % (Table S1) / Tumor volume in mm3 (Table S1): minus = inhibition; for Tumor volume in percentage (start set as 100%) increased in comparison to the control group: end of experiment, Conj1 10 mg Dau content/kg
Protocol: In the first experiment, B16 murine melanoma cells were subcutaneously (s.c.) injected into side of the latero-abdominal region of 35 C57BL/6 male mice (20–28 g), which murine strain is syngeneic for the B16 melanoma tumor cell line [59, 60], 6.5 ×·10^5 cells in a volume of 200 µL M199 medium was inoculated per animal. Mice were randomized in a stratified procedure considering two main factors. The primary factor was to obtain groups with the most equal tumor sizes, the secondary factor was to have groups in which the weight of mice are the most equal. The treatment started 9 days after cell inoculation when average tumor volume was 30 mm^3. Compounds were dissolved in saline solution (Teva, Debrecen, Hungary), and administered via i.p. injection in a volume of 0.1 mL per 10 g of bodyweight. […] Animal weight and tumor volumes were measured initially when the treatment started and at periodic intervals following treatment. A digital caliper was used to measure the longest (a) and the shortest diameter (b) of a given tumor. The tumor volume was calculated using the formula V = ab^2 × π/6, whereby a and b represent the measured parameters (length and width). Termination of the experiment was 20 days after cell inoculation, i.e., 12 days after treatment started, since the average volume of the tumors in the control group reached over 1800 mm^3. The mice from all groups were sacrificed by cervical dislocation after which their tumors were harvested and weighed for antitumor effect assessment. Antitumor effect of treatments was evaluated measuring the tumor volume and calculating the percentage of how much the tumor volume grew in comparison to the starting tumor volume which was set arbitrarily for all tumors as 100% at the start of treatment.

[2] = test system: WM983B human melanoma cell line; test: In vitro antiproliferative activity, MTT assay; format: cell-based; conditions: for IC50: MTT assay, 0.8–100 μM in serum-free medium 24 h, then 48 h culture, mean ± SD of two or three independent experiments; for Relative Potency: ratio of IC50 values of free Dau and conjugate
Description: (§1) The following cell cultures were used for the biological evaluation of the synthetic melanoma-specific peptide–drug (Dau–α-MSH) conjugates: A2058 (human skin melanoma, CVCL_1059), M24 (human metastatic skin melanoma, CVCL_D032), OCM-1 (human ocular choroidal melanoma-1, CVCL_6934), OCM-3 (human ocular choroidal melanoma-3, CVCL_6937), WM983A (human metastatic skin melanoma, CVCL_6808), WM983B (human metastatic skin melanoma CVCL_6809), SK-MEL-202 (human skin melanoma, ATCC HTB-68) and B16 (mouse melanoma, ATCC: CRL-6475). Cells were maintained in RPMI-1640 (Lonza, Basel, Switzerland), supplied with 10% FBS (fetal bovine serum; BioSera, Nuaille, France), L-glutamine, and 1% penicillin–streptomycin (from 10 000 units penicillin and 10 mg streptomycin/mL, Gibco, Dublin, Ireland) at 37 °C in a 5% CO2 atmosphere. No mycoplasma contamination was detected in the cell cultures.
(§2) The in vitro cytostatic effect of Dau–α-MSH conjugates was determined by two different assays. The full-length Dau–α-MSH conjugates were investigated by MTT assay using human and murine melanoma cell cultures. For determination of the cytostatic effect of these conjugates, the cells were treated with the compounds at 0.8–100 μM concentration range dissolved in the corresponding serum-free media for 24 h. After incubation, the treating solutions were removed, the cells were washed two times with serum-free medium and cultured for 48 h in the appropriate serum-containing cell culture medium. On the fourth day, the MTT assay was carried out to determine the IC50 values of the compounds. IC50 is the concentration that inhibits cell proliferation by 50%. Nonlinear regression analysis was performed with Prism 6 software (GraphPad, La Jolla, CA, USA) to generate sigmoidal dose–response curves, from which the 50% inhibitory concentration (IC50) values of the compounds were calculated and presented as micromolar (µM) units. The experiments were done in triplicate, and each experiment was repeated twice.

[3] = test system: M24 human melanoma cell line; test: In vitro antiproliferative activity, MTT assay; format: cell-based; conditions: for IC50: MTT assay, 0.8–100 μM in serum-free medium 24 h, then 48 h culture, mean ± SD of two or three independent experiments; for Relative Potency: ratio of IC50 values of free Dau and conjugate
Description: as §1, §2

[4] = test system: A2058 human melanoma cell line; test: In vitro antiproliferative activity, MTT assay; format: cell-based; conditions: for IC50: MTT assay, 0.8–100 μM in serum-free medium 24 h, then 48 h culture, mean ± SD of two or three independent experiments; for Relative Potency: ratio of IC50 values of free Dau and conjugate
Description: as §1, §2

[5] = test system: B16 murine melanoma cell line; test: In vitro antiproliferative activity, MTT assay; format: cell-based, mouse; conditions: for IC50: MTT assay, 0.8–100 μM in serum-free medium 24 h, then 48 h culture, mean ± SD of two or three independent experiments; for Relative Potency: ratio of IC50 values of free Dau and conjugate
Description: as §1, §2

[6] = test system: OCM-1 human uveal melanoma tumor in male NOD-SCID mice; test: In vivo tumor growth inhibition, OCM-1 xenograft; design: species or system mouse
Protocol: In the next experiment, the murine xenograft melanoma model establishment studies were performed using 8–12-week-old male NOD-SCID mice. For selection of the most suitable tumor model, three cell lines were then inoculated subcutaneously, OCM-1, SK-MEL-202, and WM983A. Cells were injected in a 0.1 mL RPMI-1640 basic medium in a concentration of 1.5·× 10^6 cells/mL, and the tumor growth and weight of mice were monitored 2–3 times per week. Subsequently, the antitumor effects of the Dau–α-MSH conjugates were determined in a mouse xenograft melanoma model selected as described above. Once the tumor volume reached 60 mm^3, mice were randomized and assigned to different groups for each treatment: 0.9% saline as a control, free daunomycin, Conj2 and Conj4. Treatments were injected intraperitoneally every fifth day, three times in total (daunomycin dosage of 5 mg/kg in case of Conj2, 10 mg/kg for Conj4, respectively, which was determined based on the toxicity tests, and 1 mg/kg were used for free drug–MTD). The weight and tumor size of mice were monitored during the whole experiment. On Day 33, mice were euthanized, and the primary tumor, heart, lung, liver, and spleen were harvested and stored in 4% formalin (Molar Chemicals, Halásztelek, Hungary). Liver weight was measured for the calculation of the toxicity of conjugates and daunomycin.

WM983A cells = test: In vitro cytostatic effect, PrestoBlue assay; format: cell-based, human; conditions: Homo sapiens; WM983A; PrestoBlue; 0.003–200 μM in serum-free medium 72 h; mean ± SEM of three independent experiments
Description: as §1
(§3) The in vitro cytostatic effect of the Dau–α-MSH conjugate with optimized sequence (Conj4) was investigated and compared with Conj2 by PrestoBlue assay using human melanoma cell cultures with different origins. For determination of the cytostatic effect of the conjugates, the cells were treated with the compounds at 0.003–200 μM concentration range dissolved in the corresponding serum-free medium for 72 h. After the treatment, the PrestoBlue assay (purchased from Invitrogen (Waltham, MA, USA) was carried out to determine the IC50 values of the compounds. Based on the IC50 values, we also determined the targeting index (TI) of the conjugates using the following equation [58]: TI=IC50neg/IC50posconjugate/IC50neg/IC50posfree drug

OCM-3 cells = test: In vitro cytostatic effect, PrestoBlue assay; format: cell-based, human; conditions: Homo sapiens; OCM-3; PrestoBlue; 0.003–200 μM in serum-free medium 72 h; mean ± SEM of three independent experiments
Description: as §1, §3

WM983B cells = test: In vitro cytostatic effect, PrestoBlue assay; format: cell-based, human; conditions: Homo sapiens; WM983B; PrestoBlue; 0.003–200 μM in serum-free medium 72 h; mean ± SEM of three independent experiments
Description: as §1, §3

OCM-1 cells = test: In vitro cytostatic effect, PrestoBlue assay; format: cell-based, human; conditions: Homo sapiens; OCM-1; PrestoBlue; 0.003–200 μM in serum-free medium 72 h; mean ± SEM of three independent experiments
Description: as §1, §3

[7] = free drug 1 mg/kg i.p., group terminated on day 28

SMILES | Increase of animal bodyweight at the end of the experiment in comparison to the start ([1]; B16-bearing C57BL/6 mice) | Tumor growth inhibition based on tumor weight, in comparison to the control group ([1]; after termination (day 20)) | Animal body weight (Table S1) ([1]; free Dau 1 mg/kg) | Tumor weigh in % (Table S1) ([1]; free Dau 1 mg/kg) | Tumor volume in % (Table S1) ([1]; free Dau 1 mg/kg) | Tumor volume in mm3 (Table S1) ([1]; free Dau 1 mg/kg) | Tumor volume in percentage (start set as 100%) increased in comparison to the control group [1] | IC50 [2] | Relative Potency [2] | IC50 [3] | Relative Potency [3] | IC50 [4] | Relative Potency [4] | IC50 [5] | Relative Potency [5] | also measured
CCCC[C@H](NC(=O)[C@H](CO)NC(=O)[C@H](Cc1ccc(O)cc1)NC(=O)[C@H](CO)NC(=O)CON=C(C)[C@]1(O)Cc2c(O)c3c(c(O)c2[C@@H](O[C@H]2C[C@H](N)[C@H](O)[C@H](C)O2)C1)C(=O)c1c(OC)cccc1C3=O)C(=O)N[C@@H](CCC(=O)O)C(=O)N[C@@H](Cc1c[nH]cn1)C(=O)N[C@@H](Cc1ccccc1)C(=O)N[C@@H](CCCNC(=N)N)C(=O)N[C@@H](Cc1c[nH]c2ccccc12)C(=O)NCC(=O)N[C@@H](CCCCN)C(=O)N1CCC[C@H]1C(=O)N[C@H](C(N)=O)C(C)C [Conj1, Dau=Aoa-SYSNleEHFRWGKPV-NH2] | 12.9% | 2.4% | +12.9% | -2.4% | +9.7% | -23.8% | 9.7% | 9900 ± 1500 nM | 0.0050 | 12800 ± 1600 nM | 0.0093 | 9800 ± 5400 nM | 0.0041 | 2900 ± 600 nM | 0.0090 | 
COc1cccc2c1C(=O)c1c(O)c3c(c(O)c1C2=O)C[C@@](O)(C(C)=O)C[C@@H]3O[C@H]1C[C@H](N)[C@H](O)[C@H](C)O1 [Dau, daunomycin, reference compound] | 7.6% | 17% | +7.6% | -17.0% | +58.8% | -4.9% | 58.8% |  |  |  |  |  |  |  |  | Tumor growth inhibition based on tumor volume in mm^3, compared to control ([1]; end of experiment (day 20), conjugates 10 mg Dau content/kg i.p., free Dau 1 mg/kg): 4.9%; Animals died during the experiment ([1]; seven animals per group, B16-bearing C57BL/6 mice): 3 animals; Liver weight compared to the control ([6]; OCM-1-bearing NOD-SCID mice, Conj2 5 mg/kg, Conj4 10 mg/kg, daunomycin 1 mg/kg i.p., no significant toxicity): 89.79%; Normalized liver weight, value line 1 ([6]; Table S2, single animal, line 1): 4.05%; Normalized liver weight, value line 2 ([6]; Table S2, single animal, line 2): 4.31%; Normalized liver weight, value line 4 ([6]; Table S2, single animal, line 4): 4.81%; Normalized liver weight, value line 5 ([6]; Table S2, single animal, line 5): 4.07%; Normalized liver weight, value line 6 ([6]; Table S2, single animal, line 6): 4.07%; Normalized liver weight, value line 7 ([6]; Table S2, single animal, line 7): 5.29%; Normalized liver weight, line printed as "relative to ctr" ([6]; Table S2, value line 9): 5.00%; Toxicity (general condition of mice) [6, 7]: high toxicity; Tumor inhibition compared to the controls [6, 7]: lack of tumor inhibition; IC50 ([2]; Homo sapiens): 50 ± 23 nM; IC50 ([3]; Homo sapiens): 119 ± 25 nM; IC50 ([4]; Homo sapiens): 40 ± 7 nM; IC50 ([5]; Mus musculus): 26 ± 8 nM; IC50 (WM983A cells): 190 ± 60 nM; IC50 (OCM-3 cells): 560 ± 50 nM; IC50 (WM983B cells): 330 ± 50 nM; IC50 (OCM-1 cells): 730 ± 60 nM
CCCC[C@H](NC(=O)[C@H](CO)NC(=O)[C@H](Cc1ccc(O)cc1)NC(=O)[C@H](CO)NC(=O)CON=C(C)[C@]1(O)Cc2c(O)c3c(c(O)c2[C@@H](O[C@H]2C[C@H](N)[C@H](O)[C@H](C)O2)C1)C(=O)c1c(OC)cccc1C3=O)C(=O)N[C@@H](CCC(=O)O)C(=O)N[C@@H](Cc1c[nH]cn1)C(=O)N[C@@H](Cc1ccccc1)C(=O)N[C@@H](CCCNC(=N)N)C(=O)N[C@@H](Cc1c[nH]c2ccccc12)C(=O)NCC(=O)N[C@@H](CCCCNC(=O)CON=C(C)[C@]1(O)Cc2c(O)c3c(c(O)c2[C@@H](O[C@H]2C[C@H](N)[C@H](O)[C@H](C)O2)C1)C(=O)c1c(OC)cccc1C3=O)C(=O)N1CCC[C@H]1C(=O)N[C@H](C(N)=O)C(C)C [Conj3, Dau=Aoa-SYSNleEHFRWGK(Dau=Aoa)PV-NH2] | 18.2% |  | +18.2% | +9.2% | -14.7% | +12.3% |  | 3600 ± 200 nM | 0.0138 | 11000 ± 800 nM | 0.0108 | 3000 ± 800 nM | 0.0133 | 2000 ± 700 nM | 0.0130 | Tumor weight increased in comparison to the control ([1]; after termination (day 20), 10 mg Dau content/kg i.p.): 9.2%; Average tumor volume (mm^3) higher compared to the control group ([1]; end of experiment (day 20), 10 mg Dau content/kg i.p.): 12.3%
